This is an account of results in patent US10370412B2, “Beta-hairpin peptidomimetics” (Polyphor AG, priority 2013, dated 2019).

Structures are written as SMILES. Where a SMILES comes first, the peptide text is derived from it. [ ]: non-standard residue; d: D form. Pro(3S-OH) = O=C(O)[C@H]1NCC[C@@H]1O; Dap(CONH2) = NC(=O)NC[C@H](N)C(=O)O; Cha = N[C@@H](CC1CCCCC1)C(=O)O; aThr = C[C@H](O)[C@H](N)C(=O)O; Tle = CC(C)(C)[C@H](N)C(=O)O; dDab = NCC[C@@H](N)C(=O)O; hSer = N[C@@H](CCO)C(=O)O; Orn = NCCC[C@H](N)C(=O)O; Api = NC1(C(=O)O)CCNCC1; Dab = NCC[C@H](N)C(=O)O; Nva = CCC[C@H](N)C(=O)O

The data set has as its system human red blood cells (hRBC). The format is cell-based. The note with it: red cells of human, 1 h. As to the method:
The peptides were tested for their hemolytic activity against human red blood cells (hRBC). Fresh hRBC were washed three times with phosphate buffered saline (PBS) and centrifuged for 10 min at 2000×g. Compounds (100 μg/ml) were incubated with 20% hRBC (v/v) for 1 h at 37° C. and shaking at 300 rpm. The final erythrocyte concentration was approximately 0.9×10^9 cells/ml. A value of 0% and 100% cell lyses, respectively, was determined by incubation of hRBC in the presence of PBS containing 0.001% acetic acid and 2.5% Triton X-100 in H2O, respectively. The samples were centrifuged, the supernatants were 8-fold diluted in PBS buffer and the optical densities (OD) were measured at 540 nm. The 100% lyses value (OD540H2O) gave an OD540 of approximately 0.5-1.0. Percent hemolysis was calculated as follows: (OD540peptide/OD540H2O)×100%.
On to `C[C@@H]1NC(=O)[C@H](C(C)(C)C)NC(=O)[C@H](CCO)NC(=O)[C@H](Cc2c[nH]c3ccccc23)NC(=O)[C@H](CCN)NC(=O)[C@@H](CCN)NC(=O)[C@H](CCCN)NC(=O)[C@H](CCN)NC(=O)[C@H](Cc2ccc(O)cc2)NC(=O)[C@H](Cc2c[nH]cn2)NC(=O)[C@H](Cc2c[nH]c3ccccc23)NC(=O)[C@@H]2CCCN2C(=O)[C@H]2CCCN2C(=O)[C@H](CO)NC1=O` [Ex. 1, cyclo(-Trp-His-Tyr-Dab-Orn-^DDab-Dab-Trp-Hse-tBuGly-Ala-Ser-^DPro-Pro-)] (cyclo(WHY[Dab][Orn][dDab][Dab]W[hSer][Tle]AS[dP]P)), for which the “Hemolysis at 100 μg/ml” value is on record as 1%.

Regarding `C[C@@H]1NC(=O)[C@H](C(C)(C)C)NC(=O)[C@H](CCN)NC(=O)[C@H](Cc2c[nH]c3ccccc23)NC(=O)[C@H](CCN)NC(=O)[C@@H](CCN)NC(=O)[C@H](CCCCN)NC(=O)[C@H](CCN)NC(=O)[C@H](CC2CCCCC2)NC(=O)[C@H](Cc2c[nH]c3ccccc23)NC(=O)[C@H](Cc2c[nH]c3ccccc23)NC(=O)[C@@H]2CCCN2C(=O)[C@H]2CCCN2C(=O)[C@H](CO)NC1=O` [Ex. 11, cyclo(-Trp-Trp-Cha-Dab-Lys-^DDab-Dab-Trp-Dab-tBuGly-Ala-Ser-^DPro-Pro-)] (cyclo(WW[Cha][Dab]K[dDab][Dab]W[Dab][Tle]AS[dP]P)), the “Hemolysis at 100 μg/ml” value is on record as 1%. For the compound `CC(C)(C)[C@@H]1NC(=O)[C@H](CCN)NC(=O)[C@H](Cc2c[nH]c3ccccc23)NC(=O)[C@H](CCN)NC(=O)C2(CCNCC2)NC(=O)[C@H](CCCN)NC(=O)[C@H](CCN)NC(=O)[C@H](CC2CCCCC2)NC(=O)[C@H](Cc2c[nH]cn2)NC(=O)[C@H](Cc2c[nH]c3ccccc23)NC(=O)[C@@H]2[C@@H](O)CCN2C(=O)[C@H]2CCCN2C(=O)[C@H](CO)NC(=O)[C@H](CO)NC1=O` [Ex. 14, cyclo(-Trp-His-Cha-Dab-Orn-Pip-Dab-Trp-Dab-tBuGly-Ser-Ser-^DPro-Pro((3S)OH)—)] (cyclo(WH[Cha][Dab][Orn][Api][Dab]W[Dab][Tle]SS[dP][Pro(3S-OH)])), the “Hemolysis at 100 μg/ml” value is given as 4%. Then `CC(C)(C)[C@@H]1NC(=O)[C@H](CCN)NC(=O)[C@H](Cc2c[nH]c3ccccc23)NC(=O)[C@H](CCN)NC(=O)[C@@H](CCN)NC(=O)[C@H](CCCN)NC(=O)[C@H](CCN)NC(=O)[C@H](CC2CCCCC2)NC(=O)[C@H](Cc2c[nH]c3ccccc23)NC(=O)[C@H](Cc2c[nH]c3ccccc23)NC(=O)[C@@H]2[C@@H](O)CCN2C(=O)[C@H]2CCCN2C(=O)[C@H](CO)NC(=O)[C@H](CO)NC1=O` [Ex. 15, cyclo(-Trp-Trp-Cha-Dab-Orn-^DDab-Dab-Trp-Dab-tBuGly-Ser-Ser-^DPro-Pro((3S)OH)—)] (cyclo(WW[Cha][Dab][Orn][dDab][Dab]W[Dab][Tle]SS[dP][Pro(3S-OH)])), with 0%. With `COc1ccc(C[C@@H]2NC(=O)[C@H](Cc3c[nH]cn3)NC(=O)[C@H](Cc3c[nH]c4ccccc34)NC(=O)[C@@H]3CCCN3C(=O)[C@H]3CCCN3C(=O)[C@H](CO)NC(=O)[C@H](C)NC(=O)[C@H](C(C)(C)C)NC(=O)[C@H](CCO)NC(=O)[C@H](Cc3c[nH]c4ccccc34)NC(=O)[C@H](CCN)NC(=O)[C@@H](CCN)NC(=O)[C@H](CCCN)NC(=O)[C@H](CCN)NC2=O)cc1` [Ex. 16, cyclo(-Trp-His-Tyr(Me)-Dab-Orn-^DDab-Dab-Trp-Hse-tBuGly-Ala-Ser-^DPro-Pro-)] (cyclo(WHY(Me)[Dab][Orn][dDab][Dab]W[hSer][Tle]AS[dP]P)), the “Hemolysis at 100 μg/ml” value is recorded as 1%. As for `CC(C)C[C@@H]1NC(=O)[C@@H]2CCCN2C(=O)[C@H]2CCCN2C(=O)[C@H]([C@H](C)O)NC(=O)[C@H](C)NC(=O)[C@H](C(C)(C)C)NC(=O)[C@H](CCN)NC(=O)[C@H](Cc2c[nH]c3ccccc23)NC(=O)[C@H](CCN)NC(=O)[C@@H](CCN)NC(=O)[C@H](CCCN)NC(=O)[C@H](CCN)NC(=O)[C@H](CC2CCCCC2)NC(=O)[C@H](Cc2c[nH]cn2)NC1=O` [Ex. 17, cyclo(-Leu-His-Cha-Dab-Orn-^DDab-Dab-Trp-Dab-tBuGly-Ala-alloThr-^DPro-Pro-)] (cyclo(LH[Cha][Dab][Orn][dDab][Dab]W[Dab][Tle]A[aThr][dP]P)), the figure is 5%. Then `C[C@@H]1NC(=O)[C@H](C(C)(C)C)NC(=O)[C@H](CCN)NC(=O)[C@H](Cc2c[nH]c3ccccc23)NC(=O)[C@H](CCN)NC(=O)[C@@H](CCN)NC(=O)[C@H](CCCN)NC(=O)[C@H](CCN)NC(=O)[C@H](Cc2ccc(O)cc2)NC(=O)[C@H](Cc2c[nH]cn2)NC(=O)[C@H](Cc2c[nH]c3ccccc23)NC(=O)[C@@H]2CCCN2C(=O)[C@H]2CCCN2C(=O)[C@H](CO)NC1=O` [compound 2, cyclo(-Trp-His-Tyr-Dab-Orn-^DDab-Dab-Trp-Dab-tBuGly-Ala-Ser-^DPro-Pro-)] (cyclo(WHY[Dab][Orn][dDab][Dab]W[Dab][Tle]AS[dP]P)), with 1%; and `CCC[C@@H]1NC(=O)[C@H](CCN)NC(=O)[C@H](Cc2c[nH]c3ccccc23)NC(=O)[C@H](CCN)NC(=O)[C@@H](CCN)NC(=O)[C@H](CCCN)NC(=O)[C@H](CCN)NC(=O)[C@H](CC2CCCCC2)NC(=O)[C@H](Cc2c[nH]cn2)NC(=O)[C@H](Cc2c[nH]c3ccccc23)NC(=O)[C@@H]2CCCN2C(=O)[C@H]2CCCN2C(=O)[C@H](CO)NC(=O)[C@H](C)NC1=O` [compound 3, cyclo(-Trp-His-Cha-Dab-Orn-^DDab-Dab-Trp-Dab-Nva-Ala-Ser-^DPro-Pro-)] (cyclo(WH[Cha][Dab][Orn][dDab][Dab]W[Dab][Nva]AS[dP]P)), with 3%; and `CC(C)[C@@H]1NC(=O)[C@H](C(C)(C)C)NC(=O)[C@H](CCN)NC(=O)[C@H](Cc2c[nH]c3ccccc23)NC(=O)[C@H](CCN)NC(=O)[C@@H](CCN)NC(=O)[C@H](CCCN)NC(=O)[C@H](CCN)NC(=O)[C@H](CC2CCCCC2)NC(=O)[C@H](Cc2c[nH]cn2)NC(=O)[C@H](Cc2c[nH]c3ccccc23)NC(=O)[C@@H]2CCCN2C(=O)[C@H]2CCCN2C(=O)[C@H](CO)NC1=O` [compound 4, cyclo(-Trp-His-Cha-Dab-Orn-^DDab-Dab-Trp-Dab-tBuGly-Val-Ser-^DPro-Pro-)] (cyclo(WH[Cha][Dab][Orn][dDab][Dab]W[Dab][Tle]VS[dP]P)), with 5%. As for `CC(C)C[C@@H]1NC(=O)[C@@H]2CCCN2C(=O)[C@H]2CCCN2C(=O)[C@H](CO)NC(=O)[C@H](C)NC(=O)[C@H](C(C)(C)C)NC(=O)[C@H](CCN)NC(=O)[C@H](Cc2c[nH]c3ccccc23)NC(=O)[C@H](CCN)NC(=O)[C@@H](CCN)NC(=O)[C@H](CCCN)NC(=O)[C@H](CCN)NC(=O)[C@H](Cc2ccc(O)cc2)NC(=O)[C@H](Cc2c[nH]cn2)NC1=O` [compound 5, cyclo(-Leu-His-Tyr-Dab-Orn-^DDab-Dab-Trp-Dab-tBuGly-Ala-Ser-^DPro-Pro-)] (cyclo(LHY[Dab][Orn][dDab][Dab]W[Dab][Tle]AS[dP]P)), the figure is 0%; as for `CC(C)C[C@@H]1NC(=O)[C@@H]2CCCN2C(=O)[C@H]2CCCN2C(=O)[C@H](CO)NC(=O)[C@H](CNC(N)=O)NC(=O)[C@H](C(C)(C)C)NC(=O)[C@H](CCN)NC(=O)[C@H](Cc2c[nH]c3ccccc23)NC(=O)[C@H](CCN)NC(=O)C2(CCNCC2)NC(=O)[C@H](CCCN)NC(=O)[C@H](CCN)NC(=O)[C@H](CC2CCCCC2)NC(=O)[C@H](Cc2c[nH]cn2)NC1=O` [compound 6, cyclo(-Leu-His-Cha-Dab-Orn-Pip-Dab-Trp-Dab-tBuGly-Alb-Ser-^DPro-Pro-)] (cyclo(LH[Cha][Dab][Orn][Api][Dab]W[Dab][Tle][Dap(CONH2)]S[dP]P)), 3%.
